Experimental data reported in patent US6355799B1, “Substituted benzene compounds, process for their preparation, and herbicidal and defoliant compositions containing them” (ISK Americas Incorporated, priority 1997, dated 2002).

Columns and labels:
Assay type in all cases: in vivo
[1] = system: redroot pigweed (Amaranthus retroflexus, AMARE); assay: Pre-emerge test, greenhouse herbicide activity screening; details: rating scale 0-100, 14 days after application
Method in brief: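 Compounds in acetone were track-sprayed at 15-1000 g ai/ha (187 l/ha) on sandy loam pots: pre-emerge one day after seeding, post-emerge at 2-3 leaf stage with 0.25% v/v non-ionic surfactant. Phytotoxicity was rated 14 days later on a 0 (no damage) to 100 (complete death) scale.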

[2] = system: barnyardgrass (Echinochloa crus-galli, ECHCG); assay: as above; details: rating scale 0-100, 14 days after application
Method in brief: (§1)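 Visual ratings on a 0-100 scale (0 no damage, 100 all plants dead) were taken at 14 days after treatment. Rates of 15-1000 g ai/ha in acetone, 187 l/ha, were sprayed onto soil one day after planting (pre-emerge) or onto 2-3 leaf plants with 0.25% v/v surfactant (post-emerge).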

[3] = system: green foxtail (Setaria viridis, SETVI); assay: as above; details: rating scale 0-100, 14 days after application
Method in brief: as §1

[4] = system: ivyleaf morningglory (Ipomoea hederacea, IPOHE); assay: as above; details: rating scale 0-100, 14 days after application
Method in brief: as §1

[5] = system: johnsongrass (Sorghum halepense, SORHA); assay: as above; details: rating scale 0-100, 14 days after application
Method in brief: as §1

[6] = system: lambsquarters (Chenopodium album, CHEAL); assay: as above; details: rating scale 0-100, 14 days after application
Method in brief: as §1

[7] = system: large crabgrass (Digitaria sanguinalis, DIGSA); assay: as above; details: rating scale 0-100, 14 days after application
Method in brief: as §1

[8] = system: sicklepod (Cassia obtusifolia, CASOB); assay: as above; details: rating scale 0-100, 14 days after application
Method in brief: as §1

[9] = system: velvetleaf (Abutilon theophrasti, ABUTH); assay: as above; details: rating scale 0-100, 14 days after application
Method in brief: as §1

[10] = system: field corn (Zea mays L., var. Dekalb 535, CORN); assay: Pre-emerge test, crop safety; details: rating scale 0-100, 14 days after application
Method in brief: (§2)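 Plants grown in 10 cm pots of sandy loam mix received acetone-dissolved compounds through a moving flat-fan nozzle. Doses ranged from 15 to 1000 g ai/ha. Pre-emerge pots were seeded one day earlier, post-emerge pots 8–21 days earlier. Fourteen days on, each pot was graded 0–100 for damage.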

[11] = system: upland rice (Oryza sp., var. Tebonnet, RICE); assay: Pre-emerge test, crop safety; details: rating scale 0-100, 14 days after application
Method in brief: as §2

[12] = system: barnyardgrass (Echinochloa crus-galli, ECHCG); assay: Post-emerge test, greenhouse herbicide activity screening; details: rating scale 0-100 (0 no damage, 100 complete death), 14 days after application
Method in brief: (§3)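 Applied at 15–1000 g ai/ha from acetone in 187 l/ha spray volume. Post-emergence applications included 0.25% v/v non-ionic surfactant and reached plants sown 8–21 days before. Pre-emergence applications were incorporated by surface watering. Efficacy or crop damage was rated on a 0–100 scale after 14 days.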

[13] = system: common ragweed (Ambrosia artemisizfolia L., AMBEL); assay: as above; details: rating scale 0-100 (0 no damage, 100 complete death), 14 days after application
Method in brief: as §3

[14] = system: green foxtail (Setaria viridis, SETVI); assay: as above; details: rating scale 0-100 (0 no damage, 100 complete death), 14 days after application
Method in brief: as §3

[15] = system: ivyleaf morningglory (Ipomoea hederacea, IPOHE); assay: as above; details: rating scale 0-100 (0 no damage, 100 complete death), 14 days after application
Method in brief: as §3

[16] = system: johnsongrass (Sorghum halepense, SORHA); assay: as above; details: rating scale 0-100 (0 no damage, 100 complete death), 14 days after application
Method in brief: as §3

[17] = system: lambsquarters (Chenopodium album, CHEAL); assay: as above; details: rating scale 0-100 (0 no damage, 100 complete death), 14 days after application
Method in brief: as §3

[18] = system: large crabgrass (Digitaria sanguinalis, DIGSA); assay: as above; details: rating scale 0-100 (0 no damage, 100 complete death), 14 days after application
Method in brief: as §3

[19] = system: redroot pigweed (Amaranthus retroflexus, AMARE); assay: as above; details: rating scale 0-100 (0 no damage, 100 complete death), 14 days after application
Method in brief: as §3

[20] = system: sicklepod (Cassia obtusifolia, CASOB); assay: as above; details: rating scale 0-100 (0 no damage, 100 complete death), 14 days after application
Method in brief: as §3

[21] = system: velvetleaf (Abutilon theophrasti, ABUTH); assay: as above; details: rating scale 0-100 (0 no damage, 100 complete death), 14 days after application
Method in brief: as §3

[22] = system: field corn (Zea mays L., var. Dekalb 535, CORN); assay: Post-emerge test, crop safety; details: rating scale 0-100 (0 no damage, 100 complete death), 14 days after application
Method in brief: as §1

[23] = system: upland rice (Oryza sp., var. Tebonnet, RICE); assay: Post-emerge test, crop safety; details: rating scale 0-100 (0 no damage, 100 complete death), 14 days after application
Method in brief: as §1

## COc1c(Cl)cc(F)c(-n2c(=O)cc(C(F)(F)F)n(C)c2=O)c1CC(Cl)C(=O)OCC(C)C (single isomer, unassigned) [14-15]
[1]; 63 g ai/ha
  Pre-emerge herbicidal activity, phytotoxicity rating AMARE: 100
[1]; 250 g ai/ha
  Pre-emerge herbicidal activity, phytotoxicity rating AMARE: 100
[2]; 63 g ai/ha
  Pre-emerge herbicidal activity, phytotoxicity rating ECHCG: 0
[2]; 250 g ai/ha
  Pre-emerge herbicidal activity, phytotoxicity rating ECHCG: 80
[3]; 63 g ai/ha
  Pre-emerge herbicidal activity, phytotoxicity rating SETVI: 0
[3]; 250 g ai/ha
  Pre-emerge herbicidal activity, phytotoxicity rating SETVI: 30
[4]; 63 g ai/ha
  Pre-emerge herbicidal activity, phytotoxicity rating IPOHE: 0
[4]; 250 g ai/ha
  Pre-emerge herbicidal activity, phytotoxicity rating IPOHE: 20
[5]; 63 g ai/ha
  Pre-emerge herbicidal activity, phytotoxicity rating SORHA: 0
[5]; 250 g ai/ha
  Pre-emerge herbicidal activity, phytotoxicity rating SORHA: 0
[6]; 63 g ai/ha
  Pre-emerge herbicidal activity, phytotoxicity rating CHEAL: 20
[6]; 250 g ai/ha
  Pre-emerge herbicidal activity, phytotoxicity rating CHEAL: 95
[7]; 63 g ai/ha
  Pre-emerge herbicidal activity, phytotoxicity rating DIGSA: 70
[7]; 250 g ai/ha
  Pre-emerge herbicidal activity, phytotoxicity rating DIGSA: 100
[8]; 63 g ai/ha
  Pre-emerge herbicidal activity, phytotoxicity rating CASOB: 0
[8]; 250 g ai/ha
  Pre-emerge herbicidal activity, phytotoxicity rating CASOB: 40
[9]; 63 g ai/ha
  Pre-emerge herbicidal activity, phytotoxicity rating ABUTH: 50
[9]; 250 g ai/ha
  Pre-emerge herbicidal activity, phytotoxicity rating ABUTH: 100
[10]; 63 g ai/ha
  Pre-emerge phytotoxicity rating, crop damage CORN: 0
[10]; 250 g ai/ha
  Pre-emerge phytotoxicity rating, crop damage CORN: 0
[11]; 63 g ai/ha
  Pre-emerge phytotoxicity rating, crop damage RICE: 0
[11]; 250 g ai/ha
  Pre-emerge phytotoxicity rating, crop damage RICE: 0
[12]; Rate 63 g ai/ha
  Post-emerge Herbicidal Activity, phytotoxicity rating ECHCG: 100
[12]; Rate 250 g ai/ha
  Post-emerge Herbicidal Activity, phytotoxicity rating ECHCG: 100
[13]; Rate 63 g ai/ha
  Post-emerge Herbicidal Activity, phytotoxicity rating AMBEL: 20
[13]; Rate 250 g ai/ha
  Post-emerge Herbicidal Activity, phytotoxicity rating AMBEL: 100
[14]; Rate 63 g ai/ha
  Post-emerge Herbicidal Activity, phytotoxicity rating SETVI: 70
[14]; Rate 250 g ai/ha
  Post-emerge Herbicidal Activity, phytotoxicity rating SETVI: 80
[15]; Rate 63 g ai/ha
  Post-emerge Herbicidal Activity, phytotoxicity rating IPOHE: 50
[15]; Rate 250 g ai/ha
  Post-emerge Herbicidal Activity, phytotoxicity rating IPOHE: 90
[16]; Rate 63 g ai/ha
  Post-emerge Herbicidal Activity, phytotoxicity rating SORHA: 50
[16]; Rate 250 g ai/ha
  Post-emerge Herbicidal Activity, phytotoxicity rating SORHA: 40
[17]; Rate 63 g ai/ha
  Post-emerge Herbicidal Activity, phytotoxicity rating CHEAL: 50
[17]; Rate 250 g ai/ha
  Post-emerge Herbicidal Activity, phytotoxicity rating CHEAL: 100
[18]; Rate 63 g ai/ha
  Post-emerge Herbicidal Activity, phytotoxicity rating DIGSA: 95
[18]; Rate 250 g ai/ha
  Post-emerge Herbicidal Activity, phytotoxicity rating DIGSA: 100
[19]; Rate 63 g ai/ha
  Post-emerge Herbicidal Activity, phytotoxicity rating AMARE: 100
[19]; Rate 250 g ai/ha
  Post-emerge Herbicidal Activity, phytotoxicity rating AMARE: 100
[20]; Rate 63 g ai/ha
  Post-emerge Herbicidal Activity, phytotoxicity rating CASOB: 0
[20]; Rate 250 g ai/ha
  Post-emerge Herbicidal Activity, phytotoxicity rating CASOB: 50
[21]; Rate 63 g ai/ha
  Post-emerge Herbicidal Activity, phytotoxicity rating ABUTH: 60
[21]; Rate 250 g ai/ha
  Post-emerge Herbicidal Activity, phytotoxicity rating ABUTH: 90
[22]; Rate 63 g ai/ha
  Post-emerge phytotoxicity rating CORN (crop damage): 20
[22]; Rate 250 g ai/ha
  Post-emerge phytotoxicity rating CORN (crop damage): 60
[23]; Rate 63 g ai/ha
  Post-emerge phytotoxicity rating RICE (crop damage): 0
[23]; Rate 250 g ai/ha
  Post-emerge phytotoxicity rating RICE (crop damage): 0
